We go through seven compounds from patent publication US9193719B2, “1,2,4-triazol-5-ones and analogs exhibiting anti-cancer and anti-proliferative activities” (Deciphera Pharmaceuticals, LLC, priority 2013, dated 2015).

Each structure is given as a SMILES string.

The test system of one assay is M-NFS-60 cells. The assay can be described thus: M-NFS-60 cell proliferation assay (resazurin). The format is cell-based. Conditions: 67 h incubation. In short, it runs like this:
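Cells kept in medium containing 20 ng/mL mouse recombinant M-CSF. Fluorescence was read at ex 540/em 600 nm, and IC50 was fitted from percent inhibition across a range of inhibitor concentrations.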
On the technique in general: Resazurin is reduced to fluorescent resorufin, in cell work by metabolically active cells.

The target of assay [1] is T1, unphosphorylated PDGFRβ kinase (uPDGFRβ, Seq. ID No. 3) (Homo sapiens, UniProt P09619).
T1 construct: purchased DeCode
Kind of assay: uPDGFRβ kinase enzymatic assay (pyruvate kinase/lactate dehydrogenase coupled). Conditions: ATP 500 μM, rate 1.5 to 2.5 h. It is filed as biochemical. An outline of the steps: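 Unphosphorylated PDGFRβ (15.7 nM) with 500 μM ATP and poly E4Y (2.5 mg/mL) in Tris pH 7.5, 0.2% octyl-glucoside, 1% DMSO; ADP coupled via PK/LDH to NADH oxidation at A340, read continuously 4 h at 30 °C. Rates from 1.5–2.5 h window versus no-compound control gave IC50.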

The next assay has as its system osteoclast precursors. The assay can be described thus: Osteoclast tartrate-resistant acid phosphatase assay. It is filed as cell-based. To be noted: RANKL and M-CSF, 7-14 days, tartrate-resistant acid phosphatase activity.
Assay [2] deals with T2, unphosphorylated c-KIT kinase (uKIT, Seq. ID no. 2) (Homo sapiens, UniProt P10721).
T2 construct: uKit with N-terminal GST fusion used for screening
Kind of assay: uKit kinase enzymatic assay (pyruvate kinase/lactate dehydrogenase coupled). Conditions: ATP 2000 μM, rate 3 to 4 h. It is filed as biochemical. In short, it runs like this:
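Coupled pyruvate kinase/lactate dehydrogenase readout of ADP, following NADH oxidation at A340 continuously for 4 h at 30 °C. Mix: 12 nM unphosphorylated KIT, 1 mg/mL polyE4Y, 2000 μM ATP, 10 mM MgCl2, 90 mM Tris pH 7.5, 0.2% octyl-glucoside, 1% DMSO. IC50 from % inhibition of rates at 3–4 h.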

T1 sequence (P09619 557-1106): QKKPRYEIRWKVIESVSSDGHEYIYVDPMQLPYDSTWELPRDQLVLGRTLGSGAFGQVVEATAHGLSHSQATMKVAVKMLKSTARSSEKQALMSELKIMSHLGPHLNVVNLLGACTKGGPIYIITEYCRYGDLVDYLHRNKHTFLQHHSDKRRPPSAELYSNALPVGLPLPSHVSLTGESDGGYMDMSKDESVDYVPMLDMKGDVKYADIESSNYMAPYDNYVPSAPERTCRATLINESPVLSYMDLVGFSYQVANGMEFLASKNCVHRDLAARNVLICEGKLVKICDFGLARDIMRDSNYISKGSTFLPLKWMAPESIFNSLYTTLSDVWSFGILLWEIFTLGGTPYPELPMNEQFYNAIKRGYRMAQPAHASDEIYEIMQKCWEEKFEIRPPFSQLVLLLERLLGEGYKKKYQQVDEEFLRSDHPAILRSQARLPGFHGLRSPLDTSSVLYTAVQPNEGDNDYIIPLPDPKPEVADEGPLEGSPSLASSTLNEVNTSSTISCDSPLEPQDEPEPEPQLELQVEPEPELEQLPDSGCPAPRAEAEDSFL
T2 sequence (P10721 with tags, fused parts or gaps): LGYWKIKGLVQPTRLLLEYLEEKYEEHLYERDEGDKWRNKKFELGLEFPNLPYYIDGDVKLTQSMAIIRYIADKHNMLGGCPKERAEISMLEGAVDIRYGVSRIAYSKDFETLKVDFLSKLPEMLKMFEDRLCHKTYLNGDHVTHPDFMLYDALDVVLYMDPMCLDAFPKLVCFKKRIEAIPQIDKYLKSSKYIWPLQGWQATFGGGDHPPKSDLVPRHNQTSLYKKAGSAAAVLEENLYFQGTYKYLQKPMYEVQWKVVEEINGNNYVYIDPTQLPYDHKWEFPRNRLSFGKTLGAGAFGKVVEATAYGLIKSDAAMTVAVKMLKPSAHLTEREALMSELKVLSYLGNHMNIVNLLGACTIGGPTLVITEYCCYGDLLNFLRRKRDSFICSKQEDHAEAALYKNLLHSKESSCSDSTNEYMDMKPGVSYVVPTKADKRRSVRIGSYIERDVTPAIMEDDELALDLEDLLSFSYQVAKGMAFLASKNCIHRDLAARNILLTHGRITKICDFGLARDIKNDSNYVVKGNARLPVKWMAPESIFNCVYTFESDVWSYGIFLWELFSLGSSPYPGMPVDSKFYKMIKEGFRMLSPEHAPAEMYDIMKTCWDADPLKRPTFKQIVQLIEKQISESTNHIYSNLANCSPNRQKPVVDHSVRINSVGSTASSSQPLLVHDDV

For `Cn1cc(-c2cc(Oc3ccc(-n4nc(Cc5ccc(F)cc5)[nH]c4=O)nc3)ccn2)cn1` [Example 3, 3-(4-fluorobenzyl)-1-(5-((2-(1-methyl-1H-pyrazol-4-yl)pyridin-4-yl)oxy)pyridin-2-yl)-1H-1,2,4-triazol-5(4H)-one], the IC50 (with M-NFS-60 cells; in assay [1]; in the assay with osteoclast precursors; in assay [2]) was 10 to 100 nM throughout.

On to `Cc1nc(-n2nc(C(C)(C)C)[nH]c2=O)ccc1Oc1cc(-c2cnn(C)c2)ncn1` [Example 47, 3-(tert-butyl)-1-(6-methyl-5-((6-(1-methyl-1H-pyrazol-4-yl)pyrimidin-4-yl)oxy)pyridin-2-yl)-1H-1,2,4-triazol-5(4H)-one], for which the IC50 was 100 to 1000 nM in the assay with M-NFS-60 cells, over 1000 nM in assay [1], 10 to 100 nM in the assay with osteoclast precursors and over 1000 nM in assay [2].

For `Cc1nc(-n2nc(CC(C)(C)C)[nH]c2=O)ccc1Oc1ccnc(-c2cnn(C)c2)c1` [Example 36, 1-(6-methyl-5-((2-(1-methyl-1H-pyrazol-4-yl)pyridin-4-yl)oxy)pyridin-2-yl)-3-neopentyl-1H-1,2,4-triazol-5(4H)-one], the IC50 is 10 to 100 nM in the assay on M-NFS-60 cells, 100 to 1000 nM in assay [1], 10 to 100 nM in the assay with osteoclast precursors and 10 to 100 nM in assay [2].

In the case of `Cc1nc(-n2nc(Cc3ccc(F)cc3)[nH]c2=O)ccc1Oc1ccnc(-c2cnn(C)c2)c1` [Example 1, 3-(4-fluorobenzyl)-1-(6-methyl-5-((2-(1-methyl-1H-pyrazol-4-yl)pyridin-4-yl)oxy)pyridin-2-yl)-1H-1,2,4-triazol-5(4H)-one], the IC50 in the assay on M-NFS-60 cells lay within 10 to 100 nM; in assay [1], 100 to 1000 nM; in the assay on osteoclast precursors it was 10 to 100 nM; in assay [2] it was 100 to 1000 nM.

`Cc1nc(-n2cc(C(C)(C)C)[nH]c2=O)ccc1Oc1ccnc(-c2cnn(C)c2)c1` [Example 48, 4-(tert-butyl)-1-(6-methyl-5-((2-(1-methyl-1H-pyrazol-4-yl)pyridin-4-yl)oxy)pyridin-2-yl)-1H-imidazol-2(3H)-one]: the IC50 in the assay with M-NFS-60 cells was 10 to 100 nM; in assay [1] it was over 1000 nM; with osteoclast precursors, 10 to 100 nM; in assay [2] it was over 1000 nM.

For the compound `Cc1nc(-n2nc(Cc3ccccc3)[nH]c2=O)ccc1Oc1ccnc(-c2cnn(C)c2)c1` [Example 2, 3-benzyl-1-(6-methyl-5-((2-(1-methyl-1H-pyrazol-4-yl)pyridin-4-yl)oxy)pyridin-2-yl)-1H-1,2,4-triazol-5(4H)-one], the IC50 lay within 10 to 100 nM with M-NFS-60 cells, 100 to 1000 nM in assay [1], 10 to 100 nM in the assay on osteoclast precursors and 100 to 1000 nM in assay [2].

On to `COCC(C)(C)c1nn(-c2ccc(Oc3ccnc(-c4cnn(C)c4)c3)c(C)n2)c(=O)[nH]1` [Example 46, 3-(1-methoxy-2-methylpropan-2-yl)-1-(6-methyl-5-((2-(1-methyl-1H-pyrazol-4-yl)pyridin-4-yl)oxy)pyridin-2-yl)-1H-1,2,4-triazol-5(4H)-one], for which the IC50 in the assay with M-NFS-60 cells was 100 to 1000 nM; in assay [1], over 1000 nM; in the assay with osteoclast precursors, 10 to 100 nM; in assay [2], 100 to 1000 nM.

In general, IC50 refers to the concentration needed to halve the response being measured.
